Laboratory results as given in patent US9416115B2, “Fused heterocyclic compounds as ion channel modulators” (Gilead Sciences, Inc., priority 2013, dated 2016).

Experiments:
hNav1.1 (SCN1A) = hNav1.1 (SCN1A) (Homo sapiens, UniProt P35498); assay: Use-dependent inhibition of the CNS Nav1.1 sodium channel; type: cell-based; details: use-dependent block, 25 Hz, pulse 20, read-out: Nav1.1 UDB 25 Hz 10 uM
Procedure: HEK-293 cells stably expressing wild-type (WT) hNav1.1 (SCN1A, NCBI# AB09354) were obtained from Millipore (Cat. # CYL3009) were used to record INa. Cells are maintained with standard tissue culture procedures and stable channel expression is maintained with 400 ug/mL G418 in the culture medium. Unless otherwise noted, all reagents are purchased from Sigma-Aldrich (St Louis, Mo., U.S.A.).
Assays measuring Use-Dependent Block (UDB) of Nav1.2 are performed on an automated electrophysiology platform, QPatch 16X or QPatch HT (Sophion Bioscience, Copenhagen, Denmark), using the whole cell patch clamp technique to measure currents through the cell membrane. Series resistance compensation is set to 100% and series resistance and whole-cell compensation are performed automatically. Currents stored in the Sophion Bioscience Oracle database (Sophion Bioscience, Copenhagen, Denmark). Analysis is performed using QPatch Assay software and data are compiled in Excel 2010 (Microsoft, Seattle, Wash., U.S.A.).
The internal (pipette) solution consists of (in mM) 105 CsF, 10 NaF, 20 CsCl, 2 EGTA, 10 HEPES, 10 Dextrose with a pH of 7.35 and osmolarity of 300 mOsmol/kg. The external (bath) solution contains in (mM): 145 NaCl, 4 KCl, 1.8 CaCl2, 1 MgCl2, 10 dextrose, 10 HEPES, with a pH of 7.35 and osmolarity of 310 mOsmol/kg. Experiments are carried out at 23-25° C.
Compound stocks are routinely made by the Gilead Sample Bank in vials to 10 mM in dimethyl sulfoxide (DMSO). In some cases, when compounds are not soluble in DMSO, they are made in 100% ethanol. Stocks are sonicated as necessary. […]
Cells are allowed to stabilize for 10 min after establishment of the whole-cell configuration before current is measured. The test compound is applied 2 times at 60 second intervals. After the second compound addition, a 200 second wait period was imposed to allow for equilibration. Leak currents are subtracted by using an online P/4 procedure and all currents are low-pass Bessel filtered at 5 kHz and digitized at […].
Use-dependent block of Nav1.2 peak current is measured during pulse number 20 of a voltage pulse train (0 mV, 20 ms, 20 pulses, 25 Hz) from a holding potential of −120 mV. Currents are normalized to the peak current recorded in response to the first pulse in each frequency train. The voltage protocol for UDB was performed in the absence and presence of compound and percentage inhibition was calculated with respect to the compound free condition. Results are presented as mean percentage inhibition and data analysis is performed using QPatch Assay Software 4.0, and Excel 2002 (Microsoft, Seattle, Wash., U.S.A.).

[1] = target: wild-type human cardiac sodium channel, hNav1.5 (Homo sapiens, UniProt Q14524); assay: Late INa screening assay (QPatch whole cell patch clamp, Tefluthrin-induced late current); type: cell-based; details: HEK293 hNav1.5, percent block of late INa
Method in brief: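 HEK293 cells stably expressing hNav1.5 without beta subunits were whole-cell patch clamped at 23-25 °C, stepping from −120 to −20 mV for 250 ms at 0.1 Hz. Late current (240–265 ms) was induced with 10 μM Tefluthrin, and compounds were added typically at 0.3 or 1 μM. Percent block was taken against 0 Na baseline with rundown correction.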

Chain of wild-type human cardiac sodium channel, hNav1.5 (Q14524 whole entry): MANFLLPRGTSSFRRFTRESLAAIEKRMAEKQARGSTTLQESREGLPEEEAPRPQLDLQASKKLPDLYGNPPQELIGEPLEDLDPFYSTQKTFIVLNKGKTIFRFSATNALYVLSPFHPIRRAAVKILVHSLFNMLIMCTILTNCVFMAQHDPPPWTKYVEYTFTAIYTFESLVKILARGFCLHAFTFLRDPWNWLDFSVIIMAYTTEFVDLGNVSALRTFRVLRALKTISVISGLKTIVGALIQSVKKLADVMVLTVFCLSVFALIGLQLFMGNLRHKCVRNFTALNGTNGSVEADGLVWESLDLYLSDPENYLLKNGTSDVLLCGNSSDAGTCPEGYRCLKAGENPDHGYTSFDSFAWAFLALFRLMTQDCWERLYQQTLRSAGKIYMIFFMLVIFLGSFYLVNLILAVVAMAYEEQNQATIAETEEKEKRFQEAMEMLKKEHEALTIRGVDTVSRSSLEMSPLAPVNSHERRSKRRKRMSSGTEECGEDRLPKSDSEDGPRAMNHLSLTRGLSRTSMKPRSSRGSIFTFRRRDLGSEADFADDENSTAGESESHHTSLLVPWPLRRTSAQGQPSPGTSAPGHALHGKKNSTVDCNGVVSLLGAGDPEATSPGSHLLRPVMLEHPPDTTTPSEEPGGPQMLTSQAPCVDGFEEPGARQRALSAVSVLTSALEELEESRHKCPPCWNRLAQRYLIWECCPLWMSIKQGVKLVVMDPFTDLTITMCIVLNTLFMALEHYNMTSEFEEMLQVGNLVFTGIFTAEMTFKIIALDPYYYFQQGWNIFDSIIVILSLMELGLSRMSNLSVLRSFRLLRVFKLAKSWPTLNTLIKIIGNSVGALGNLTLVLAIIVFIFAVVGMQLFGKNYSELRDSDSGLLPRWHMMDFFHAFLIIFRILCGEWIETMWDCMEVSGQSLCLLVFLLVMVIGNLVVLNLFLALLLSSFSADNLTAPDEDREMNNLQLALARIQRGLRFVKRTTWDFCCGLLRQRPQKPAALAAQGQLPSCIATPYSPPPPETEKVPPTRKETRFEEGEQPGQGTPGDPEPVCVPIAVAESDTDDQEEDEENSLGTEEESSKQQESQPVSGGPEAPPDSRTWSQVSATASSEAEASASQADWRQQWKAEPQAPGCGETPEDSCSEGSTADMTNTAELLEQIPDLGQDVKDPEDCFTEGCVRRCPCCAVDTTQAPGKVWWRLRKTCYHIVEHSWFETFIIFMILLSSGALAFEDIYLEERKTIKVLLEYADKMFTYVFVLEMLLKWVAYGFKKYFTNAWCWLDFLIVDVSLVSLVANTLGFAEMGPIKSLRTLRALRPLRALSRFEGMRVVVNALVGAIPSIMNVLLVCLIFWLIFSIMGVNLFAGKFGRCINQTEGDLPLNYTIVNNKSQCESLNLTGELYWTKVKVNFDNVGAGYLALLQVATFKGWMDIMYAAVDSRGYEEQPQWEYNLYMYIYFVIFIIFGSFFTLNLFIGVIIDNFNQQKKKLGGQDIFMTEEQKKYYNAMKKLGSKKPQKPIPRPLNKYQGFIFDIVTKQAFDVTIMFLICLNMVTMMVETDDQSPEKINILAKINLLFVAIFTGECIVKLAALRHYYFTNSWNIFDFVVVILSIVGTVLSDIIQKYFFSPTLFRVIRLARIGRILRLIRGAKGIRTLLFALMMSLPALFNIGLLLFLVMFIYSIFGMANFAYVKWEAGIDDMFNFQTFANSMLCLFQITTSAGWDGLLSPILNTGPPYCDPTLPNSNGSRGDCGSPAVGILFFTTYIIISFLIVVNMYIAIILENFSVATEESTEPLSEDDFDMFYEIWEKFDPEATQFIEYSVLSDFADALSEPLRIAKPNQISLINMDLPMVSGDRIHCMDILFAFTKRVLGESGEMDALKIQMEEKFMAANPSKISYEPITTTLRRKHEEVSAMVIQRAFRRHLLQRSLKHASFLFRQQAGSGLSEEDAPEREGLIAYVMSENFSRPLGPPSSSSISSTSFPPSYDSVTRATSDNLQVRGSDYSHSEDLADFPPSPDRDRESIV

Row | Compound | inhibition at 10 µM (hNav1.1 (SCN1A)) | inhibition at 0.3 µM [1] | inhibition at 1 µM [1]
1 | COCCOc1noc2ccc(-c3ccc(OC(F)(F)F)cc3)cc12 [Example 60, 3-(2-methoxyethoxy)-5-(4-(trifluoromethoxy)phenyl)benzo[d]isoxazole] | 27% | 16.8% | 57.2%
2 | COc1ccnc(COc2noc3ccc(-c4ccc(OC(F)(F)F)cc4)cc23)n1 [Example 67, 3-((4-methoxypyrimidin-2-yl)methoxy)-5-(4-(trifluoromethoxy)phenyl)benzo[d]isoxazole] | 5.26% | 54.4% | 77.4%
3 | CC(COc1noc2ccc(-c3ccc(OC(F)(F)F)cc3)cc12)n1cccn1 (centres unmarked) [Example 68, 3-(2-(1H-pyrazol-1-yl)propoxy)-5-(4-(trifluoromethoxy)phenyl)benzo[d]isoxazole] | < 5% | 35.8% | 62.2%
4 | CN1CCC[C@H]1COc1noc2ccc(-c3ccc(OC(F)(F)F)cc3)cc12 [Example 71, (S)-3-((1-methylpyrrolidin-2-yl)methoxy)-5-(4-(trifluoromethoxy)phenyl)benzo[d]isoxazole] | 93.8% | 41.7% | 81.5%
5 | O=C1NCC[C@H]1Oc1noc2ccc(-c3ccc(OC(F)(F)F)cc3)cc12 [Example 72, (R)-3-((5-(4-(trifluoromethoxy)phenyl)benzo[d]isoxazol-3-yl)oxy)pyrrolidin-2-one] | 78.1% | 14% | 57.4%
6 | Cc1cnc(COc2noc3ccc(-c4ccc(OC(F)(F)F)cc4)cc23)cn1 [Example 73, 3-((5-methylpyrazin-2-yl)methoxy)-5-(4-(trifluoromethoxy)phenyl)benzo[d]isoxazole] | 10.1% | 20.4% | 66.2%
7 | FC(F)(F)Oc1ccc(-c2ccc3onc(OCc4cccnn4)c3c2)cc1 [Example 74, 3-(pyridazin-3-ylmethoxy)-5-(4-(trifluoromethoxy)phenyl)benzo[d]isoxazole] | < 5% | 15.7% | 60.9%
8 | O=C1OCCN1CCOc1noc2ccc(-c3ccc(OC(F)(F)F)cc3)cc12 [Example 75, 3-(2-((5-(4-(trifluoromethoxy)phenyl)benzo[d]isoxazol-3-yl)oxy)ethyl)oxazolidin-2-one] | 34.2% | 29.3% | 59.5%
9 | Cc1cc(-c2ccc(OC(F)(F)F)cc2)cc2c(OCc3cn(C)nn3)noc12 [Example 87, 7-methyl-3-((1-methyl-1H-1,2,3-triazol-4-yl)methoxy)-5-(4-(trifluoromethoxy)phenyl)benzo[d]isoxazole] | 90.8% | 18.4% | 62.7%
10 | Fc1cccnc1COc1noc2ccc(-c3ccc(OC(F)(F)F)cc3)cc12 [Example 94, 3-((3-fluoropyridin-2-yl)methoxy)-5-(4-(trifluoromethoxy)phenyl)benzo[d]isoxazole] | < 5% | 35.1% | 58.7%
11 | FC(F)(F)Oc1ccc(-c2ccc3onc(OCc4nnc(C5CC5)o4)c3c2)cc1 [Example 96, 3-((5-cyclopropyl-1,3,4-oxadiazol-2-yl)methoxy)-5-(4-(trifluoromethoxy)phenyl)benzo[d]isoxazole] | 29.4% | 21.1% | 59.2%
12 | Cc1nnc(COc2noc3ccc(-c4ccc(OC(F)(F)F)cc4)cc23)o1 [Example 99, 3-((5-methyl-1,3,4-oxadiazol-2-yl)methoxy)-5-(4-(trifluoromethoxy)phenyl)benzo[d]isoxazole] | 30% | 42.3% | 72.3%
13 | CC(C)c1nnc(COc2noc3ccc(-c4ccc(OC(F)(F)F)cc4)cc23)o1 [Example 100, 3-((5-isopropyl-1,3,4-oxadiazol-2-yl)methoxy)-5-(4-(trifluoromethoxy)phenyl)benzo[d]isoxazole] | 9.9% | 31.7% | 61.9%
14 | Cc1nnc(COc2noc3ccc(-c4ccc(OC(F)(F)F)cc4)cc23)s1 [Example 101, 3-((5-methyl-1,3,4-thiadiazol-2-yl)methoxy)-5-(4-(trifluoromethoxy)phenyl)benzo[d]isoxazole] | < 5% | – | 54.6%
15 | Cc1cc(COc2noc3ccc(-c4ccc(OC(F)(F)F)cc4)cc23)on1 [Example 102, 3-((3-methylisoxazol-5-yl)methoxy)-5-(4-(trifluoromethoxy)phenyl)benzo[d]isoxazole] | < 5% | – | 43.1%
16 | N#CCOc1noc2ccc(-c3ccc(OC(F)(F)F)cc3)cc12 [Example 103, 2-((5-(4-(trifluoromethoxy)phenyl)benzo[d]isoxazol-3-yl)oxy)acetonitrile] | 8.5% | – | 38.9%
17 | Fc1cc(-c2ccc(OC(F)(F)F)cc2)cc2c(OCc3nnc(C4CC4)o3)noc12 [Example 104, 3-((5-cyclopropyl-1,3,4-oxadiazol-2-yl)methoxy)-7-fluoro-5-(4-(trifluoromethoxy)phenyl)benzo[d]isoxazole] | 53.1% | – | 38.6%
18 | Cc1cc(-c2ccc(OC(F)(F)F)cc2)cc2c(OCc3nnc(C4CC4)o3)noc12 [Example 105, 3-((5-cyclopropyl-1,3,4-oxadiazol-2-yl)methoxy)-7-methyl-5-(4-(trifluoromethoxy)phenyl)benzo[d]isoxazole] | 75.7% | – | 53.7%
19 | CC(=O)N1CCC[C@H]1COc1noc2ccc(-c3ccc(OC(F)(F)F)cc3)cc12 [Example 109, (S)-1-(2-(((5-(4-(trifluoromethoxy)phenyl)benzo[d]isoxazol-3-yl)oxy)methyl)pyrrolidin-1-yl)ethan-1-one] | 57% | 25.3% | 65.7%
20 | CC(=O)N1CC(COc2noc3ccc(-c4ccc(OC(F)(F)F)cc4)cc23)C1 [Example 110, 1-(3-(((5-(4-(trifluoromethoxy)phenyl)benzo[d]isoxazol-3-yl)oxy)methyl)azetidin-1-yl)ethan-1-one] | 77.7% | 25.7% | 62.7%
21 | CC(C)(C)OC(=O)N1CCOC[C@H]1COc1noc2ccc(-c3ccc(OC(F)(F)F)cc3)cc12 [Example 111, tert-butyl(S)-3-(((5-(4-(trifluoromethoxy)phenyl)benzo[d]isoxazol-3-yl)oxy)methyl)morpholine-4-carboxylate] | 50.4% | – | 35.1%
22 | FC(F)(F)Oc1ccc(-c2ccc3onc(OC[C@@H]4COCCN4)c3c2)cc1 [Example 113, (S)-3-(morpholin-3-ylmethoxy)-5-(4-(trifluoromethoxy)phenyl)benzo[d]isoxazole] | 88.4% | 43.9% | 79.9%
23 | FC(F)(F)Oc1ccc(-c2ccc3onc(OC[C@H]4COCCN4)c3c2)cc1 [Example 114, (R)-3-(morpholin-3-ylmethoxy)-5-(4-(trifluoromethoxy)phenyl)benzo[d]isoxazole] | 87.1% | 22.5% | 61.2%
24 | CC(=O)N1CCOC[C@H]1COc1noc2ccc(-c3ccc(OC(F)(F)F)cc3)cc12 [Example 115, (S)-1-(3-(((5-(4-(trifluoromethoxy)phenyl)benzo[d]isoxazol-3-yl)oxy)methyl)morpholino)ethan-1-one] | 76.4% | 23.5% | 56.7%
25 | CC(=O)N1CCOC[C@@H]1COc1noc2ccc(-c3ccc(OC(F)(F)F)cc3)cc12 [Example 116, (R)-1-(3-(((5-(4-(trifluoromethoxy)phenyl)benzo[d]isoxazol-3-yl)oxy)methyl)morpholino)ethan-1-one] | 70.4% | – | 48.3%
